Values of other authors, collected in patent publication US9861587B2, “Composition and method for treating ketosis in cows” (RP FEED COMPONENTS, LLC, priority 2011, dated 2018).

Tests used:
ketotic cows = details: two ketotic cows; daily injections or oral administration of 12.5 g
[1] = test system: cases of clinical ketosis; details: six cases; orally 40 g once daily for seven days; 21-day examination period
bovine ketosis = details: oral administration

Compound | treatment of ketosis (ketotic cows) | serum ketone levels [1] | symptoms of bovine ketosis (bovine ketosis)
CSCCC(N)C(=O)O (racemic) [DL-methionine] | unsuccessful treatment |  | 
DL-α-hydroxy-γ-methylmercaptobutyrate calcium [methionine hydroxy analog (MHA)] |  | fell slowly over a 21-day examination period, but never returned to normal levels | aided in alleviating symptoms of bovine ketosis
